Laboratory results from patent US20220339143A1, “TAK-925 FOR USE IN TREATING NARCOLEPSY” (Takeda Pharmaceutical Company Limited, priority 2019, published 2022).
Where two headings read alike, the source gives them in different places.

Columns and labels:
[1] = Plasma concentrations in healthy subjects (Cohort 4); format: in vivo; conditions: human, intravenous, 112 mg
Experimental: (§1) Pharmacokinetics: Concentrations of Compound A in plasma, and CSF, and pharmacokinetics parameters.
Following a single 9-hour IV infusion of 112 mg to healthy adult subjects in Cohort 4, Compound A plasma concentration-time profile was consistent with that observed in Cohort 1. At 6 hours after the start of infusion, mean ratio CSF/plasma concentration of Compound A was estimated to be about 2.8%.

patients with NT1 [2] = assay: Safety and tolerability of multiple IV administration in patients with NT1; format: in vivo, human
Experimental: (§2) The purpose of the study was to evaluate the safety, tolerability, pharmacokinetics and pharmacodynamics of Compound A after multiple IV administration in patients with NT1. NT1 patients were evaluated in Cohort B1 and B2 (Table 19). Compound A or placebo were administered via IV infusion over 9 hours once daily for 7 days. A total of 13 patients with NT1 were treated with Compound A or placebo (4, 4, and 5 subjects in the placebo, Compound A 11 mg, and Compound A 44 mg groups, respectively). In this part, potential efficacy of Compound A was evaluated with MWT, ESS, KSS, night-time PSG (NPSG), cataplexy frequency assessment, and PGI-C as an exploratory PD assessment.

[3] = Single dose PK in healthy elderly subjects (Cohort 3), plasma; format: in vivo, human
Experimental: This study investigates (i) the safety and tolerability of Compound A (methyl (2R,3S)-3-((methylsulfonyl)amino)-2-(((cis-4-phenylcyclohexyl)oxy)methyl)piperidine-1-carboxylate) when a single dose given as a 9 hour continuous IV infusion is administered to healthy adults, healthy elderly subjects and patients with narcolepsy type 1 (NT1); (ii) the pharmacokinetics of Compound A when a single dose given as a 9 hour continuous IV infusion is administered to healthy adults, healthy elderly subjects and patients with narcolepsy type 1; and (iii) the pharmacodynamics (PD) effects of Compound A, primarily by evaluation of the sleep latency on MWT when a single dose given as a 9 hour continuous IV infusion is administered to patients with narcolepsy type 1.
as §1

patients with NT1 [4] = assay: PVT, multiple dose (Cohorts B1, B2); format: in vivo, human; conditions: 9 hours postdose
[5] = Multiple-dose PK of intravenous Compound A in patients with NT1 (Cohorts B1, B2), plasma; format: in vivo, human; conditions: for clearance: read-out: CL, Mean (converted)
Experimental: as §2
Blood samples used for PK analysis of Compound A was collected according to Table 20. See also FIG. 12 for whole schedules of study procedures.

patients with NT1 [6] = assay: Number of cataplexy episodes (self-recorded sleep diary), multiple dose (Cohorts B1, B2); format: in vivo, human; conditions: for Number of Cataplexy Episodes, Median / Number of Cataplexy Episodes, Mean: Treatment Period (Day 1-7 [until 24 hours after start of infusion])
Experimental: as §2
An overview of study schedule and PD testing in NT1 Patients is illustrated in FIG. 11. After screening, patients eligible for these parts had to discontinue any medication for narcolepsy including medications used for EDS or cataplexy. The medications had to be stopped for a minimum of 7 days or at least 5 half-lives of each medication, whichever was longer, before the first day of dosing (Day 1). As for a subject having possibility of getting injured due to severe cataplexy, the subject might have been confined to the site before Day −2 at a discretion of the investigator. In all cohorts of these parts, subjects underwent NPSG on Day −2 and baseline MWT sessions 4 times on Day −1 (at around 10:00, 12:00, 14:00, and 16:00). Study drug dosing via IV infusion was started at around 08:00. MWT was conducted on Day 1 at around 10:00, 12:00, 14:00, and 16:00. Subjects were allowed to take a nap on the days with no MWT assessment. At night of Day 6, the subjects underwent NPSG once again to evaluate the effect of multiple daytime dosing on night-time sleep structure. On Day 7, the subjects underwent MWT at the same hours as on Day −1. Cataplexy was to be evaluated by using the self-recorded sleep diary. The subjects were discharged from the study site on Day 8.

[7] = human, plasma, intravenous, 11 mg, Day 7

COC(=O)N1CCC[C@H](NS(C)(=O)=O)[C@@H]1CO[C@H]1CC[C@@H](c2ccccc2)CC1 [Compound A, methyl (2R,3S)-3-((methylsulfonyl)amino)-2-(((cis-4-phenylcyclohexyl)oxy)methyl)piperidine-1-carboxylate]
concentration at 0.5 h ([1]; Mean): 119 ng/mL
concentration at 0.5 h ([1]; Median): 116 ng/mL
concentration at 1 h ([1]; Mean): 162 ng/mL
concentration at 1 h ([1]; Median): 156 ng/mL
concentration at 1.5 h ([1]; Mean): 193 ng/mL
concentration at 1.5 h ([1]; Median): 194 ng/mL
concentration at 2 h ([1]; Mean): 186 ng/mL
concentration at 2 h ([1]; Median): 183 ng/mL
concentration at 3 h ([1]; Mean): 216 ng/mL
concentration at 3 h ([1]; Median): 218 ng/mL
concentration at 4 h ([1]; Mean): 234 ng/mL
concentration at 4 h ([1]; Median): 224 ng/mL
concentration at 6 h ([1]; Mean): 234 ng/mL
concentration at 6 h ([1]; Median): 227 ng/mL
concentration at 8 h ([1]; Mean): 177 ng/mL
concentration at 8 h ([1]; Median): 168 ng/mL
concentration at 9 h ([1]; Mean): 184 ng/mL
concentration at 9 h ([1]; Median): 182 ng/mL
BP and PR increases vs plasma exposure (patients with NT1 [2]; NT1 patient populations): A trend for the observed BP and PR increases with increasing Compound A plasma exposure was observed
safety and tolerability (patients with NT1 [2]; multiple IV administrations of up to 44 mg, 9 h infusion once daily for 7 days, NT1): safe and well tolerated
SAE and TEAE leading to study drug discontinuation (patients with NT1 [2]; multiple IV administrations of up to 44 mg, NT1): There was no SAE, and no TEAE leading to study drug discontinuation
reduction in clearance compared to younger healthy subjects [3]: 20%
PVT, mean change from baseline in the number of lapses (patients with NT1 [4]; 11 mg, Day 1 (placebo 10.5)): −9.3
PVT, mean change from baseline in mean duration of the reciprocal 10% slowest reaction time (1/RT) (patients with NT1 [4]; 11 mg, Day 1 (placebo −0.49)): 0.88
PVT, mean change from baseline in the number of lapses (patients with NT1 [4]; 11 mg, Day 7 (placebo 11.8)): −14.8
PVT, mean change from baseline in mean duration of the reciprocal 10% slowest reaction time (1/RT) (patients with NT1 [4]; 11 mg, Day 7 (placebo −0.73)): 1.27
PVT, mean change from baseline in the number of lapses (patients with NT1 [4]; 44 mg, Day 1 (placebo 10.5)): −12.8
PVT, mean change from baseline in mean duration of the reciprocal 10% slowest reaction time (1/RT) (patients with NT1 [4]; 44 mg, Day 1 (placebo −0.49)): 0.51
PVT, mean change from baseline in the number of lapses (patients with NT1 [4]; 44 mg, Day 7 (placebo 11.8)): −12.8
PVT, mean change from baseline in mean duration of the reciprocal 10% slowest reaction time (1/RT) (patients with NT1 [4]; 44 mg, Day 7 (placebo −0.73)): −0.70
AUCtau D, Mean ([5]; 11 mg, Day 1): 15.00 ng·h/mL/mg
Cmax D Mean ([5]; 11 mg, Day 1): 1.660 ng/mL/mg
Vax, Mean ([5]; 11 mg, Day 1): 129.6 L
AUCtau D, Mean ([5]; 11 mg, Day 7): 16.70 ng·h/mL/mg
Cmax D Mean ([5]; 11 mg, Day 7): 1.868 ng/mL/mg
Cmin, Mean ([5]; 11 mg, Day 7): 0.3258 ng/mL
PTR, Mean ([5]; 11 mg, Day 7): 57.07
Vx, Mean ([5]; 11 mg, Day 7): 313.0 L
t½z Mean ([5]; 11 mg, Day 7): 3.595 h
Cmin, Geo Mean ([5]; 11 mg, Day 7 (N of Geo Mean 3)): 0.4061 ng/mL
AUCtau D, Mean ([5]; 44 mg, Day 1): 15.70 ng·h/mL/mg
Vax, Mean ([5]; 44 mg, Day 1): 135.0 L
Vz, Mean ([5]; 44 mg, Day 1): 316.2 L
AUCtau D, Mean ([5]; 44 mg, Day 7): 16.56 ng·h/mL/mg
Cmax D Mean ([5]; 44 mg, Day 7): 1.858 ng/mL/mg
Cmin, Mean ([5]; 44 mg, Day 7): 1.327 ng/mL
PTR, Mean ([5]; 44 mg, Day 7): 70.28
Vx, Mean ([5]; 44 mg, Day 7): 375.2 L
t½z Mean ([5]; 44 mg, Day 7): 4.222 h
drug accumulation ([5]; QD dosing, 9-hour IV infusion daily for 7 days): no drug accumulation was observed
dose proportionality of mean plasma systemic exposures ([5]; daily 9-hour IV infusions, 11 and 44 mg): generally increased in a dose proportional manner
AUC(0-inf) ([5]; human, plasma, intravenous, 11 mg, Day 1, read-out: AUCinf, Geo Mean): 166 ng·h/mL
AUC(0-inf) ([5]; human, plasma, intravenous, 11 mg, Day 1, read-out: AUCinf, Mean): 167 ng·h/mL
AUC(0-t) ([5]; human, plasma, intravenous, 11 mg, Day 1, read-out: AUClast, Geo Mean): 164 ng·h/mL
AUC ([5]; human, plasma, intravenous, 11 mg, Day 1, read-out: AUCtau, Geo Mean): 164 ng·h/mL
AUC ([5]; human, plasma, intravenous, 11 mg, Day 1, read-out: AUCtau, Mean): 165 ng·h/mL
Cmax ([5]; human, plasma, intravenous, 11 mg, Day 1, read-out: Cmax, Geo Mean): 18.2 ng/mL
Cmax ([5]; human, plasma, intravenous, 11 mg, Day 1, read-out: Cmax, Mean): 18.3 ng/mL
AUC(0-t) ([5]; human, plasma, intravenous, 11 mg, Day 7, read-out: AUClast, Geo Mean): 182 ng·h/mL
AUC ([5]; human, plasma, intravenous, 11 mg, Day 7, read-out: AUCtau, Geo Mean): 183 ng·h/mL
AUC ([5]; human, plasma, intravenous, 11 mg, Day 7, read-out: AUCtau, Mean): 184 ng·h/mL
Cmax at 7 days ([5]; human, plasma, intravenous, 11 mg, Day 7, read-out: Cmax, Geo Mean): 20.5 ng/mL
AUC(0-inf) ([5]; human, plasma, intravenous, 44 mg, Day 1, read-out: AUCinf, Mean): 697 ng·h/mL
AUC(0-t) ([5]; human, plasma, intravenous, 44 mg, Day 1, read-out: AUClast, Geo Mean): 682 ng·h/mL
AUC ([5]; human, plasma, intravenous, 44 mg, Day 7, read-out: AUCtau, Geo Mean): 723 ng·h/mL
AUC ([5]; human, plasma, intravenous, 44 mg, Day 7, read-out: AUCtau, Mean): 729 ng·h/mL
Cmax at 7 days ([5]; human, plasma, intravenous, 44 mg, Day 7, read-out: Cmax, Geo Mean): 81.2 ng/mL
Vd ([5]; human, plasma, intravenous, 11 mg, Day 1, read-out: Vz, Mean): 310 L
Tmax at 7 days [5, 7]: 5.17 h
clearance [5, 7]: 1010 mL/min
clearance ([5]; human, plasma, intravenous, 44 mg, Day 1): 1080 mL/min
Tmax ([5]; human, plasma, intravenous, 44 mg, Day 7): 4.93 h
AUC(0-t) ([5]; human, plasma, iv, 11 mg, Day 1, 9 h IV infusion QD, NT1, read-out: AUClast, Mean): 164 ng·h/mL
Number of Cataplexy Episodes (Time-matched), Median (patients with NT1 [6]; 11 mg, Day 1-7 (after infusion time up to 24 hours after start of infusion)): 1.0
Number of Cataplexy Episodes (Time-matched), Mean (patients with NT1 [6]; 11 mg, Day 1-7 (after infusion time up to 24 hours after start of infusion), time-matched baseline 5.8): 3.0
Number of Cataplexy Episodes (Time-matched), Median (patients with NT1 [6]; 11 mg, Day 1-7 (during infusion time)): 0.0
Number of Cataplexy Episodes (Time-matched), Mean (patients with NT1 [6]; 11 mg, Day 1-7 (during infusion time), time-matched baseline 5.8): 0
Number of Cataplexy Episodes (Time-matched), Mean (patients with NT1 [6]; 11 mg, Day 1-7 (during infusion time), time-matched baseline 5.8, listed as Cmpd A): 0.0
Number of Cataplexy Episodes, Median (patients with NT1 [6]; 11 mg): 1.0
Number of Cataplexy Episodes, Mean (patients with NT1 [6]; 11 mg, baseline 11.5): 3.0
Number of Cataplexy Episodes (Time-matched), Median (patients with NT1 [6]; 44 mg, Day 1-7 (after infusion time up to 24 hours after start of infusion)): 1.0
Number of Cataplexy Episodes (Time-matched), Mean (patients with NT1 [6]; 44 mg, Day 1-7 (after infusion time up to 24 hours after start of infusion), time-matched baseline 0.4): 1.4
Number of Cataplexy Episodes (Time-matched), Median (patients with NT1 [6]; 44 mg, Day 1-7 (during infusion time)): 0.0
Number of Cataplexy Episodes (Time-matched), Mean (patients with NT1 [6]; 44 mg, Day 1-7 (during infusion time), time-matched baseline 3.2): 0
Number of Cataplexy Episodes (Time-matched), Mean (patients with NT1 [6]; 44 mg, Day 1-7 (during infusion time), time-matched baseline 3.2, listed as Cmpd A): 0.0
Number of Cataplexy Episodes, Median (patients with NT1 [6]; 44 mg): 1.0
Number of Cataplexy Episodes, Mean (patients with NT1 [6]; 44 mg, baseline 3.6): 1.4
